Reference: patent publication US20260308159A1, “BICYCLIC HETEROARYLAMIDES HAVING GPR68 MODULATING ACTIVITY” (RECURSION PHARMACEUTICALS, INC., priority 2023, published 2026)
pIC50: −log10 of the molar value.

Target: T1, human GPR68 (Homo sapiens, UniProt Q15743)
T1 construct: encoding full-length human GPR68 (uniprot ID: Q15743); expressed in transfected cells; host or cells: HEK293T
Assay: GPR68 Biochemical Assay (Promega GloSensor cAMP assay, GPR68 antagonism)
Type: cell-based
Details: HEK293T cells transiently expressing hGPR68, antagonism of pH 5.5 stimulated cAMP, 15 min, read-out: hGPR68 IC50
Description: GPR68 antagonism was determined using the Promega GloSensor™ CAMP assay (F. I. Wang et al., Methods 2021, S1046-2023 (21) 00249-8). HEK293T cells (obtained from ECACC, Cat 12022001, Lot no. 17E044) were cultured in T175 flasks (Greiner, Cat 660175) in DMEM (Gibco, Cat 11995-065) supplemented with 10% Fetal Bovine Serum (Gibco Cat 16000-044), and 100 u/mL Pen-Strep (Gibco, Cat 15140) at 37° C. and 5% CO2. GPR68 expression was achieved by transient transfection with a mammalian expression plasmid encoding full-length human GPR68 (uniprot ID: Q15743) under control of a CMV promoter. The day before transfection, cell media was aspirated and HEK293T cells were incubated with accutase (Sigma, Cat A6964) for 3-4 minutes 37° C. and 5% CO2 before being manually detached with excess DMEM and trituration. Cell density was determined by automated cell counting (Countess, Invitrogen) and adjusted to 6×10^6 cells/20 mL and transferred to 15 cm dishes (Thermo Fisher, Cat 130183) for overnight incubation at 37° C. and 5% CO2. The next day separate mammalian expression plasmids encoding hGPR68 (4 μg) and Promega GloSensor (8 μg) were diluted to 1 mL in Opti-MEM (Thermo Fisher Scientific, Cat 31985070) and incubated with 30 μL of lipofectamine 3000 (also diluted to 1 mL in Opti-MEM) for 15 minutes at room temperature and subsequently added dropwise to the plated cells. Post transfection cells were then incubated at 37° C. and 5% CO2 for at least 16 hours before transfer to assay plates the following day. Transfer was conducted by washing cells with PBS and incubating with accutase for 3-4 minutes 37° C. and 5% CO2 before being manually detached with excess DMEM and mild trituration. The suspension was then centrifuged at 192 RCF for 4 minutes in a 50 mL centrifuge tube (Greiner, Cat 227261).
Supernatant was removed by aspiration and the cell pellet was resuspended in DMEM+1% dialysed FBS (Gibco, Cat 26400-044) and 100 u/mL Pen-Strep to a cell density of 500 cells/μL. Cells were plated into poly-L-Lysine coated 384-well white assay plates (Corning, Cat 3570) at a final volume of 40 µL and a density of 20,000 cells/well before overnight incubation at 37° C. and 5% CO2. The following day media was manually ejected from the 384-well assay plate and replaced with 10 μL GloSensor substrate (Promega, Cat E1291) prepared in pH 8.0 assay buffer (1×HBSS, 10 mM HEPES, 10 mM MOPS). Cells were incubated with this solution for 60 minutes at room temperature in the dark. Test compounds or an equivalent volume of DMSO (vehicle) were added to compounds plates to create a 9-point, half-log concentration series for each compound with a maximum final assay concentration of 50 μM and a consistent final DMSO concentration of 0.5%. Assay buffer with 0.1% BSA and 0.01% ascorbic acid was prepared at three pHs: pH 8.0, pH 5.5 and pH 4.5. pH 8.0 and 4.5 were added to the compound plate as maximum and minimum effect controls whilst pH 5.5 was added to all compound wells to stimulate GPR68 to a level corresponding to […] of maximal stimulation after addition to the cells already in pH 8.0 (assay acceptance criteria range 70-90%). DMSO/Compound and buffer was added to the plated cells containing the GloSensor substrate and incubated for 15 minutes at room temperature before being read on a microplate reader (BMG PHERAstar, optic module LUM Plus with Gain 3600). Data was exported and analysed in excel and Graphpad prism (version 9). Assay QC acceptance criteria required the maximum and minimum controls to return a Z′≥0.5, the EC80 to be 80%±10% of expected and the reference ligand pIC50 to be within one-half-log unit of its historical IC50. Percent inhibition was calculated using the mean EC80 (pH 5.5) and mean minimum effect control (pH 8.0). Data were plotted as percentage inhibition, average±SEM. IC50, Emax, Emin, Actual max, actual min, R^2 and fit confidence were calculated using Graphpad Prism's sigmoidal dose-response function.

T1 sequence (Q15743 whole entry): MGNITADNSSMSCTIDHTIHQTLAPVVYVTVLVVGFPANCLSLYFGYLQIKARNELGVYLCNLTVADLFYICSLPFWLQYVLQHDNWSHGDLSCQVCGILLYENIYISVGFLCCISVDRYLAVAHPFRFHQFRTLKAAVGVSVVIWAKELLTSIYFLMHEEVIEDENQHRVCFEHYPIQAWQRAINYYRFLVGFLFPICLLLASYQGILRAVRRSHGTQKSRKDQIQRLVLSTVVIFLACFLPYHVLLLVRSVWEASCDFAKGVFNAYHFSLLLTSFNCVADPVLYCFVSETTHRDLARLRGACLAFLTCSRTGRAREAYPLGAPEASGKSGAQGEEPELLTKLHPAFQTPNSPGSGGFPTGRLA

| pIC50 | Structure (SMILES) |
| --- | --- |
| > 7.30 | COCc1nn2c(C(=O)N[C@H]3CCOc4cc(F)ccc43)ccnc2c1C(N)=O [Compound 123, 2-(methoxymethyl)-N7-[(4S)-7-fluorochroman-4-yl]pyrazolo[1,5-a]pyrimidine-3,7-dicarboxamide] |
| > 7.30 | COCc1nc2c(C(=O)NCc3ccc(F)cc3)ccnn2c1C(N)=O [Compound 110, N8-[(4-fluorophenyl)methyl]-2-(methoxymethyl)imidazo[1,2-b]pyridazine-3,8-dicarboxamide] |
| 5.30 to 6.30 | Cc1ccc(-c2ccncc2)cc1NC(=O)c1ccnc2c(C(N)=O)cnn12 [Compound 97, N7-[2-methyl-5-(pyridin-4-yl)phenyl]pyrazolo[1,5-a]pyrimidine-3,7-dicarboxamide] |
| > 7.30 | COCc1nn2c(C(=O)NC3CC(F)(F)c4ccccc43)ccnc2c1C(N)=O (stereo not shown) [Compound 129, N7-(3,3-difluoroindan-1-yl)-2-(methoxymethyl)pyrazolo[1,5-a]pyrimidine-3,7-dicarboxamide] |
| > 7.30 | COCc1nn2c(C(=O)Nc3ccc(F)cc3F)ccnc2c1C(N)=O [Compound 68, N7-(2,4-difluorophenyl)-2-(methoxymethyl)pyrazolo[1,5-a]pyrimidine-3,7-dicarboxamide] |
| > 7.30 | NC(=O)c1c(C2CC2)nc2c(C(=O)NC3Cc4cscc4C3)ccnn12 [Compound 208, 2-cyclopropyl-N8-(5,6-dihydro-4H-cyclopenta[c]thiophen-5-yl)imidazo[1,2-b]pyridazine-3,8-dicarboxamide] |
| > 7.30 | NC(=O)c1c(C2CC2)nn2c(C(=O)N[C@H]3CCS(=O)(=O)c4ccccc43)ccnc12 [Compound 236, 2-cyclopropyl-N7-[(4S)-1,1-dioxo-3,4-dihydro-2H-thiochromen-4-yl]pyrazolo[1,5-a]pyrimidine-3,7-dicarboxamide] |
| > 7.30 | CSCc1nn2c(C(=O)NC3Cc4ccccc4C3)ccnc2c1C(N)=O [Compound 214, N7-indan-2-yl-2-(methylsulfanylmethyl)pyrazolo[1,5-a]pyrimidine-3,7-dicarboxamide] |
| > 7.30 | COCc1nn2c(C(=O)NC3CNc4ccccc4C3)ccnc2c1C(N)=O (stereo not shown) [Compound 93, 2-(methoxymethyl)-N7-(1,2,3,4-tetrahydroquinolin-3-yl)pyrazolo[1,5-a]pyrimidine-3,7-dicarboxamide] |
| > 7.30 | NC(=O)c1c(OCC2CC2)nn2c(C(=O)NC3Cc4ccccc4C3)ccnc12 [Compound 142, 2-(cyclopropylmethoxy)-N7-indan-2-yl-pyrazolo[1,5-a]pyrimidine-3,7-dicarboxamide] |
| 4.30 to 5.30 | C[C@]1(F)C[C@H](NC(=O)c2ccnc3c(C(N)=O)cnn23)C1 [Compound 7, N7-(trans-3-fluoro-3-methyl-cyclobutyl)pyrazolo[1,5-a]pyrimidine-3,7-dicarboxamide] |
| > 7.30 | COCc1nn2c(C(=O)N[C@H]3COc4ccc(F)cc43)ccnc2c1C(N)=O [Compound 120, N7-[(3R)-5-fluoro-2,3-dihydrobenzofuran-3-yl]-2-(methoxymethyl)pyrazolo[1,5-a]pyrimidine-3,7-dicarboxamide] |
| 6.30 to 7.30 | Cc1cccc2c1CC(NC(=O)c1ccnc3c(C(N)=O)cnn13)C2 (stereo not shown) [Compound 2, N7-(4-methylindan-2-yl)pyrazolo[1,5-a]pyrimidine-3,7-dicarboxamide] |
| > 7.30 | COCc1nn2c(C(=O)NC3CC(F)(F)C3)ccnc2c1C(N)=O [Compound 58, N7-(3,3-difluorocyclobutyl)-2-(methoxymethyl)pyrazolo[1,5-a]pyrimidine-3,7-dicarboxamide] |
| 5.30 to 6.30 | NC(=O)c1c(-c2ccccc2F)nn2c(C(=O)NC3Cc4ccccc4C3)cccc12 [Compound 36, 2-(2-fluorophenyl)-N7-indan-2-yl-pyrazolo[1,5-a]pyridine-3,7-dicarboxamide] |
| > 7.30 | COCc1nn2c(C(=O)NC3Cc4cccnc4C3)ccnc2c1C(N)=O (single isomer, unassigned) [Compound 147, N7-(6,7-dihydro-5H-cyclopenta[b]pyridin-6-yl)-2-(methoxymethyl)pyrazolo[1,5-a]pyrimidine-3,7-dicarboxamide] |
| > 7.30 | COCc1nn2c(C(=O)NC3CC(F)(F)c4ccc(F)cc43)ccnc2c1C(N)=O (stereo not shown) [Compound 237, 2-(Methoxymethyl)-N7-(3,3,6-trifluoroindan-1-yl)pyrazolo[1,5-a]pyrimidine-3,7-dicarboxamide] |
| 6.30 to 7.30 | COCc1nn2c(C(=O)NC3Cc4ccccc4C3)ccnc2c1C(=O)O [Compound 143, 7-(indan-2-ylcarbamoyl)-2-(methoxymethyl)pyrazolo[1,5-a]pyrimidine-3-carboxylic Acid] |
| 5.30 to 6.30 | NC(=O)c1c(-c2ncco2)nn2c(C(=O)NC3CC(F)(F)C3)ccnc12 [Compound 25, N7-(3,3-difluorocyclobutyl)-2-oxazol-2-yl-pyrazolo[1,5-a]pyrimidine-3,7-dicarboxamide] |
| > 7.30 | COCc1nn2c(C(=O)Nc3ccc(F)c(F)c3)ccnc2c1C(N)=O [Compound 66, N7-(3,4-difluorophenyl)-2-(methoxymethyl)pyrazolo[1,5-a]pyrimidine-3,7-dicarboxamide] |
| > 7.30 | CSCc1nn2c(C(=O)N[C@H]3C[C@@H](OC(F)(F)F)C3)ccnc2c1C(N)=O [Compound 217, 2-(methylsulfanylmethyl)-N7-[cis-3-(trifluoromethoxy)cyclobutyl]pyrazolo[1,5-a]pyrimidine-3,7-dicarboxamide] |
| 4.00 to 4.30 | CCC1(CC)CC(NC(=O)c2ccnc3c(C(N)=O)cnn23)C1 [Compound 10, N7-(3,3-diethylcyclobutyl)pyrazolo[1,5-a]pyrimidine-3,7-dicarboxamide] |
| > 7.30 | Cc1nn2c(C(=O)NC3Cc4ccccc4C3)ccnc2c1C(N)=O [Compound 46, N7-indan-2-yl-2-methyl-pyrazolo[1,5-a]pyrimidine-3,7-dicarboxamide] |
| 6.30 to 7.30 | Cc1nn2c(C(=O)N[C@H]3C[C@@H](OC(F)(F)F)C3)ccnc2c1C(N)=O [Compound 53, 2-methyl-N7-[cis-3-(trifluoromethoxy)cyclobutyl]pyrazolo[1,5-a]pyrimidine-3,7-dicarboxamide] |
| 5.30 to 6.30 | NC(=O)c1c(CO)nn2c(C(=O)NC3CC(F)(F)C3)ccnc12 [Compound 207, N7-(3,3-difluorocyclobutyl)-2-(hydroxymethyl)pyrazolo[1,5-a]pyrimidine-3,7-dicarboxamide] |

Same assay, conditions: hGPR68 IC50, HEK293T cells transiently expressing hGPR68, antagonism of pH 5.5 stimulated cAMP, 15 min

| pIC50 | Structure (SMILES) |
| --- | --- |
| 6.30 to 7.30 | COCc1nn2c(C(=O)N[C@H]3C[C@](C)(F)C3)ccnc2c1C(N)=O [Compound 94, N7-(trans-3-fluoro-3-methyl-cyclobutyl)-2-(methoxymethyl)pyrazolo[1,5-a]pyrimidine-3,7-dicarboxamide] |
| 6.30 to 7.30 | NC(=O)c1c(C2CCCO2)nn2c(C(=O)NC3CC(F)(F)C3)ccnc12 (stereo not shown) [Compound 43, N7-(3,3-difluorocyclobutyl)-2-tetrahydrofuran-2-yl-pyrazolo[1,5-a]pyrimidine-3,7-dicarboxamide] |
| > 7.30 | NC(=O)c1c(C2CCOC2)nn2c(C(=O)NC3Cc4ccccc4C3)ccnc12 (stereo not shown) [Compound 37, N7-indan-2-yl-2-tetrahydrofuran-3-yl-pyrazolo[1,5-a]pyrimidine-3,7-dicarboxamide] |
